Reference: patent US20260041683A1, “Compounds with Anti-Acinetobacter Baumannii Activity” (University of Kentucky Research Foundation, priority 2022, published 2026)
Converted amounts (≈) assume the structure as drawn. Where two headings read alike, the source gives them in different places.

How the values were obtained:
Ab ATCC 19606 (strain I) = assay: MIC determination (double dilution, Mueller-Hinton broth); format: cell-based, Acinetobacter baumannii; settings: Acinetobacter baumannii, ATCC19606
Procedure: All bacterial strains listed above were stored at −80° C. All strains were streaked on Mueller-Hinton (MH) plates and allowed to grow at 37° C. overnight. […] The resulting culture was diluted 1:1000 and added to the prepared serially doubly diluted compound solutions in 96-well plates. For M. smegmatis, a 1:100 dilution of the bacteria was done in MH. All MIC values were determined using 96-well plates with low evaporation seals at least in duplicate. For each row, one well was reserved for sterile control (which consisted of 200 μL of MH medium) and another well was reserved for growth control (which consisted of 100 μL of MH medium seeded with 100 μL of bacterial culture).
(§1) Minimum inhibitory concentrations (MIC) of all compounds from the series were measured in liquid cultures of different Ab strains by a double-dilution method in Mueller-Hinton broth. Initially, the activity of all 46 compounds against Ab ATCC 19606 (a control strain) and Ab ATCC BAA1605 (a multidrug-resistant strain) (Table 1; data shown for 27 representative compounds) was measured.

[1] = test system: Ab ATCC BAA1605 (strain J, multidrug-resistant); assay: MIC determination; format: cell-based; settings: Acinetobacter baumannii
Procedure: (§2) All bacterial strains listed above were stored at −80° C. All strains were streaked on Mueller-Hinton (MH) plates and allowed to grow at 37° C. overnight. Enough colonies were scraped from the plate and suspended in MH broth with vortexing to reach an attenuance at 600 nm (OD600) of ˜0.5. The resulting culture was diluted 1:1000 and added to the prepared serially doubly diluted compound solutions in 96-well plates. For M. smegmatis, a 1:100 dilution of the bacteria was done in MH. All MIC values were determined using 96-well plates with low evaporation seals at least in duplicate. For each row, one well was reserved for sterile control (which consisted of 200 μL of MH medium) and another well was reserved for growth control (which consisted of 100 μL of MH medium seeded with 100 μL of bacterial culture).
as §1

K. pneumoniae ATCC 27736 = assay: MIC determination; format: cell-based; settings: Klebsiella pneumoniae, ATCC27736
P. aeruginosa ATCC 27853 = assay: MIC determination; format: cell-based; settings: Pseudomonas aeruginosa, ATCC27853
B. anthracis Sterne F32 = assay: microbe, parasite or virus in culture; format: cell-based; settings: Bacillus anthracis, STERNEF32, read-out: MIC strain A
S. enterica ATCC 14028 = assay: MIC determination; format: cell-based; settings: Salmonella enterica, ATCC14028; Table 5; Mueller-Hinton medium; H = S. enterica ATCC 14028; read-out: MIC strain H
E. cloacae ATCC 13047 = assay: MIC determination; format: cell-based; settings: Enterobacter cloacae, ATCC13047; Table 5; Mueller-Hinton medium; E = E. cloacae ATCC 13047; read-out: MIC strain E
[2] = test system: S. epidermidis ATCC 12228; assay: MIC determination; format: cell-based; settings: Staphylococcus epidermidis, ATCC12228; Table 5; Mueller-Hinton medium; C = S. epidermidis ATCC 12228; read-out: MIC strain C
S. aureus ATCC 25923 = assay: MIC determination; format: cell-based; settings: Staphylococcus aureus, ATCC25923; Table 5; Mueller-Hinton medium; B = S. aureus ATCC 25923; read-out: MIC strain B
E. coli MC1061 = assay: MIC determination; format: cell-based; settings: Escherichia coli; Table 5; Mueller-Hinton medium; D = E. coli MC1061; read-out: MIC strain D
[3] = test system: all 43 strains of A. baumannii (41 CDC strains and 2 ATCC strains); assay: MIC value statistics for all A. baumannii strains; format: cell-based, Acinetobacter baumannii; settings: of 43 A. baumannii strains
Procedure: as §2, with “[…].” for “For M. smegmatis, a 1:100 dilution of the bacteria was done in MH. All MIC values were determined using 96-well plates with low evaporation seals at least in duplicate.”
Having established that the observed activity is selective to A. baumannii, all synthesized compounds were tested against a panel of antibiotic resistant A. baumannii from the Antimicrobial Resistant (AR) Isolate Bank from the CDC along with strains I and J (Table Si). […]. Based on this statistical analysis, the best compound is 5e followed closely by 3e.

Gram-negative bacteria = assay: MIC determination, panel statement; format: cell-based; settings: moderate activity
E. coli ATCC BAA 2469 = assay: MIC determination; format: cell-based; settings: Escherichia coli, BAA2469; Table 3
[4] = test system: K. pneumoniae ATCC BAA 1705; assay: MIC determination; format: cell-based; settings: Klebsiella pneumoniae, BAA1705; Table 3
[5] = Table 1, control strain, read-out: MIC Ab ATCC 19606
[6] = Table 5, Mueller-Hinton medium, I = A. baumannii ATCC 19606, read-out: MIC strain I
[7] = Table 1, multidrug-resistant strain, read-out: MIC Ab ATCC BAA 1605
[8] = Table 5, Mueller-Hinton medium, J = A. baumannii BAA1605, read-out: MIC strain J
[9] = Table 5, Mueller-Hinton medium, F = K. pneumoniae ATCC 27736, read-out: MIC strain F
[10] = Table 5, Mueller-Hinton medium, G = P. aeruginosa ATCC 27853, read-out: MIC strain G

Compound	MIC (Ab ATCC 19606 (strain I); [5]) [mg/L]	MIC (Ab ATCC 19606 (strain I); [6]) [mg/L]	MIC [1, 7] [mg/L]	MIC [1, 8] [mg/L]	MIC (K. pneumoniae ATCC 27736; [9]) [mg/L]	MIC (P. aeruginosa ATCC 27853; [10]) [mg/L]	MIC (B. anthracis Sterne F32) [mg/L]	MIC (S. enterica ATCC 14028) [mg/L]	MIC (E. cloacae ATCC 13047) [mg/L]	MIC [2] [mg/L]	MIC (S. aureus ATCC 25923) [mg/L]	MIC (E. coli MC1061) [mg/L]	number of compound/strain combinations with MIC value 0.25 μg/mL [3]	number of compound/strain combinations with MIC value 0.5 μg/mL [3]	number of compound/strain combinations with MIC value ≤0.125 μg/mL [3]	MIC (Gram-negative bacteria) [mg/L]	number of compound/strain combinations with MIC value 1 μg/mL [3]	further results
O=C(NNc1ccc(Cl)cc1)c1cccc(F)n1 [Compound 5e]	0.125 (≈ 0.47 µM)	≤ 0.125	0.125 (≈ 0.47 µM)	≤ 0.125	16 (≈ 60.2 µM)	> 64	> 64	16 (≈ 60.2 µM)	16 (≈ 60.2 µM)	> 64	> 64	16 (≈ 60.2 µM)	21	2	20	4 to 16 (≈ 15.1 to 60.2 µM)	–	–
O=C(NNc1ccc(Cl)cc1)c1ccccc1 [Compound 10e]	–	0.25 (≈ 1.01 µM)	–	0.5 (≈ 2.03 µM)	16 (≈ 64.9 µM)	> 64	> 64	64 (≈ 259 µM)	16 (≈ 64.9 µM)	64 (≈ 259 µM)	64 (≈ 259 µM)	16 (≈ 64.9 µM)	23	6	13	4 to 16 (≈ 16.2 to 64.9 µM)	1	–
O=C(NNc1ccc(Cl)cc1)c1ccc(F)cc1F [Compound 1e]	0.25 (≈ 0.884 µM)	0.25 (≈ 0.884 µM)	0.25 (≈ 0.884 µM)	0.25 (≈ 0.884 µM)	> 64	> 64	> 64	> 64	16 (≈ 56.6 µM)	> 64	> 64	16 (≈ 56.6 µM)	17	12	8	4 to 16 (≈ 14.2 to 56.6 µM)	5	number of compound/strain combinations with MIC value 2 μg/mL [3]: 1
COc1cccc(NNC(=O)c2ccccn2)c1 [Compound 2c]	0.5 (≈ 2.06 µM)	–	1 (≈ 4.11 µM)	–	–	–	–	–	–	–	–	–	5	6	1	–	28	MIC ([1]; Table 3, positive control strain, read-out: MIC A. Baumannii ATCC BAA 1605): 1 mg/L (≈ 4.11 µM); MIC (K. pneumoniae ATCC 27736; Table 3, read-out: MIC K. pneumoniae ATCC 27736): > 128 mg/L; MIC (P. aeruginosa ATCC 27853; Table 3, read-out: MIC P. aeruginosa ATCC 27853): > 128 mg/L; MIC (E. coli ATCC BAA 2469): > 128 mg/L; MIC [4]: > 128 mg/L; number of compound/strain combinations with MIC value 2 μg/mL [3]: 3
O=C(NNc1ccc(Cl)cc1)c1ccco1 [Compound 15e]	0.5 (≈ 2.11 µM)	0.5 (≈ 2.11 µM)	≤ 0.125	≤ 0.125	16 (≈ 67.6 µM)	> 64	> 64	16 (≈ 67.6 µM)	4 (≈ 16.9 µM)	64 (≈ 270 µM)	64 (≈ 270 µM)	16 (≈ 67.6 µM)	18	10	13	–	2	–
O=C(NNc1ccc(Cl)cc1)c1ccc2ccccc2n1 [Compound 12e]	0.5 (≈ 1.68 µM)	0.5 (≈ 1.68 µM)	0.5 (≈ 1.68 µM)	0.5 (≈ 1.68 µM)	> 64	> 64	> 64	> 64	> 64	> 64	> 64	16 (≈ 53.7 µM)	7	19	–	–	17	–
CCC(=O)NNc1ccc(Cl)cc1 [Compound 16e]	≤ 0.25	≤ 0.125	≤ 0.125	≤ 0.125	16 (≈ 80.5 µM)	> 64	> 64	64 (≈ 322 µM)	16 (≈ 80.5 µM)	> 64	> 64	16 (≈ 80.5 µM)	17	10	15	–	1	–
